Experimental data reported in ChEMBL document CHEMBL3407359, “(3Z)-3-(2-[4-(aryl)-1,3-thiazol-2-yl]hydrazin-1-ylidene)-2,3-dihydro-1H-indol-2-one derivatives as dual inhibitors of HIV-1 reverse transcriptase” (Eur J Med Chem, 2015).

Columns and labels:
[1] = biological target: T1, Human immunodeficiency virus type 1 reverse transcriptase (Human immunodeficiency virus 1, UniProt Q72547, K103N)
Description: Inhibition of HIV1 reverse transcriptase Lys103Asn mutant-associated DNA polymerase-independent RNase H activity after 1 hr

[2] = biological target: T1, Human immunodeficiency virus type 1 reverse transcriptase; remark: listed apart in the source
Description: Inhibition of HIV1 reverse transcriptase Lys103Asn mutant-associated RNA-dependent DNA polymerase activity after 30 mins

[3] = biological target: T2, Human immunodeficiency virus type 1 reverse transcriptase (Human immunodeficiency virus 1, UniProt Q72547); assay: Inhibition of HIV1 reverse transcriptase-associated RNA-dependent DNA polymerase activity after 30 mins
[4] = biological target: T3, Human immunodeficiency virus type 1 reverse transcriptase (Human immunodeficiency virus 1, UniProt Q72547, Y181C)
Description: Inhibition of HIV1 reverse transcriptase Tyr181Cys mutant-associated RNA-dependent DNA polymerase activity after 30 mins

[5] = biological target: Human immunodeficiency virus type 1 reverse transcriptase (Human immunodeficiency virus 1) (UniProt Q72547); assay: Specificity index, ratio of IC50 for HIV1 reverse transcriptase-associated DNA polymerase-independent RNase H activity to IC50 for HIV1 reverse transcriptase-associated RNA-dependent DNA polymerase activity
[6] = biological target: T3, Human immunodeficiency virus type 1 reverse transcriptase; remark: listed apart in the source
Description: Inhibition of HIV1 reverse transcriptase Tyr181Cys mutant-associated DNA polymerase-independent RNase H activity after 1 hr

[7] = biological target: T2, Human immunodeficiency virus type 1 reverse transcriptase; assay: Inhibition of HIV1 reverse transcriptase-associated DNA polymerase-independent RNase H activity after 1 hr
[8] = Metal chelating activity of the compound assessed as magnesium ion complex formation by UV-vis spectrometric analysis; assay type: physicochemical

## O=C1Nc2ccccc2/C1=N/Nc1nc(-c2ccc(-c3ccccc3)cc2)cs1
[1]
  IC50: 3.42 µM
[2]
  IC50: 18.8 µM
[3]
  IC50: 22 µM
[4]
  IC50: 15.4 µM
[5]
  Ratio IC50: 0.11
[6]
  IC50: 2.7 µM
[7]
  IC50: 2.5 µM
[8]
  Activity: Not Active

## O=C1Nc2ccccc2/C1=N/Nc1nc(-c2cccc([N+](=O)[O-])c2)cs1
[3]
  IC50: 13 µM
[5]
  Ratio IC50: 0.21
[7]
  IC50: 2.8 µM

## O=C1Nc2ccccc2/C1=N/Nc1nc(-c2ccc(Cl)cc2)cs1
[3]
  IC50: 20 µM
[5]
  Ratio IC50: 0.53
[7]
  IC50: 10.6 µM

## O=C1Nc2ccccc2/C1=N/Nc1nc(-c2ccc(F)cc2F)cs1
[3]
  IC50: 18.5 µM
[5]
  Ratio IC50: 0.14
[7]
  IC50: 2.6 µM

## O=C1Nc2ccccc2/C1=N/Nc1nc(-c2ccc(Br)cc2)cs1
[3]
  IC50: 81 µM
[5]
  Ratio IC50: 0.18
[7]
  IC50: 14.9 µM

## O=C1Nc2ccccc2/C1=N/Nc1nc(-c2ccccc2)cs1
[3]
  IC50: 71.6 µM
[5]
  Ratio IC50: 1.3
[7]
  IC50: 100 µM

## O=C1Nc2ccccc2/C1=N/Nc1nc(-c2ccc(F)cc2)cs1
[3]
  IC50: 23.9 µM
[5]
  Ratio IC50: 0.26
[7]
  IC50: 6.4 µM

## O=C1Nc2ccccc2/C1=N/Nc1nc(-c2ccc(O)c(O)c2)cs1
[3]
  IC50: 0.9 µM
[5]
  Ratio IC50: 3.5
[7]
  IC50: 3.2 µM
[8]
  Activity: Not Active

## Cc1ccc(-c2csc(N/N=C3\C(=O)Nc4ccccc43)n2)cc1
[3]
  IC50: 45 µM
[5]
  Ratio IC50: 0.2
[7]
  IC50: 9 µM

## O=C1Nc2ccccc2/C1=N/Nc1nc(-c2ccc([N+](=O)[O-])cc2)cs1
[3]
  IC50: 34 µM
[5]
  Ratio IC50: 0.08
[7]
  IC50: 2.9 µM

## O=C1Nc2ccccc2/C1=N/Nc1nc(-c2ccc(Cl)cc2Cl)cs1
[3]
  IC50: 19.5 µM
[5]
  Ratio IC50: 0.2
[7]
  IC50: 3.9 µM

## COc1ccc(-c2csc(N/N=C3\C(=O)Nc4ccccc43)n2)cc1
[3]
  IC50: 26 µM
[5]
  Ratio IC50: 0.18
[7]
  IC50: 4.7 µM
